Read-outs that look alike come from different tables or passages of the source.
What was measured:
tinea unguium = assay: Treatment of tinea unguium, case reports; format: in vivo, humans
tinea glabrosa = assay: Topical treatment of tinea glabrosa, case reports; format: in vivo, humans
Experimental: Dermatomycosis includes dermatophytosis, cutaneous candidiasis, and malasseziosis. As time progresses with these diseases, a variety of fungi will parasitize the site.
To 2.4 g of calcium benzoate trihydrate was added water to prepare 200 g of a 1% test solution. This solution was atomized twice a day for tinea glabrosa denoted by redness on the abdominal region.
This red papule was treated twice a day with a 2% solution of ethylenediaminetetraacetic acid trisodium salt prepared in the same manner as in Example 5.

tinea corporis = assay: Topical treatment of tinea corporis, case reports; format: in vivo, humans; settings: for healing of tinea corporis: Example 10: 0.01% test solutions
Excerpt: (§1) The compounds of the present invention were investigated with respect to the treatment of dermatomycosis affecting humans. […] The cases of tinea used in the investigation involved selection of various types of tinea such as vesicular-type tinea, interdigital-type tinea, hyperkeratotic tinea, tinea corporis, tinea unguium, etc.
(§2) The dermatophytes that cause dermatophytosis, a typical form of dermatomycosis, are mainly Trichophyton rubrum and Trichophyton mentagrophytes. […] This confirmation of dermatophytes involved planting a sample of skin or nail of an area affected with tinea in a Candida nutrient medium (Nissui Pharmaceutical Co., Ltd.), isolating the dermatophytes that grow, and then confirming the dermatophytes through gene analysis or observation of morphology. A more detailed description of the fungus identification is provided in the examples.
A 1% test solution of ethylenediaminetetraacetic acid trisodium salt prepared in the same manner as Example 6 was applied by spraying once a day onto an area, approximately 5 cm wide and 3 cm long, of a chest affected by tinea corporis, which was denoted by flaring redness.
To 119 mg of ethylenediaminetetraacetic acid tetrasodium salt tetrahydrate was added 20% ethanol to prepare 1 L of 0.01% test solution. This test solution was applied by spraying, three times a day, to tinea corporis denoted by red flaring ridges that had occurred on the thigh.

[1] = JECFA evaluation of food additives; cited from earlier work
[2] = test system: T. mentagrophytes IFM 59813; assay: CLSI broth microdilution drug-sensitivity test; format: cell-based, Trichophyton mentagrophytes
Experimental: (§3) The antimicrobial activity of the pharmaceutical composition for dermatomycosis according to the present invention was evaluated through drug-susceptibility tests against major pathogenic fungi performed in compliance with the guidelines of the Clinical Laboratory Standards Institute (CLSI), USA. The pathogenic fungi selected were genus Tricophyton (T. rubrum, T. mentagrophytes, T. tonsurans), genus Microsporum (M. gypseum), genus Epidermophyton (E. floccosum), genus Candida (C. albicans), genus Aspergillus (A. fumigatus), and genus Cryptococcus (C. neoformans). […] In the drug-susceptibility tests, Mg ions and Ca ions necessary for conidia (spores) of the fungus to germinate growth were included in the nutrient medium.
(§4) The antifungal activity of the compounds of the present invention was evaluated by performing drug-sensitivity tests against various pathogenic fungi. The testing method was a broth microdilution method in conformance with the guidelines of the Clinical Laboratory Standards Institute (CLSI), USA.

C. albicans IFM 5740 = assay: CLSI broth microdilution drug-sensitivity test; format: cell-based
Experimental: as §3, §4

M. gypseum IFM 59816 = assay: CLSI broth microdilution drug-sensitivity test; format: cell-based
Experimental: as §3, §4

C. neoformans IFM5807 = assay: CLSI broth microdilution drug-sensitivity test; format: cell-based
Experimental: as §3, §4

A. fumigatus IFM4942 = assay: CLSI broth microdilution drug-sensitivity test; format: cell-based
Experimental: as §3, §4

M. globosa = assay: microbe, parasite or virus in culture; settings: Malassezia globosa, 168 h
Experimental: as §3
The antifungal activity of the compounds of the present invention against Malassezia spp. was evaluated in drug sensitivity tests against human-related genus Malassezia species, performed in compliance with the methodology of Sugita et al. (2005). The test drug and mLNA nutrient medium were added to the wells of a 24-well microtiter plate with a total quantity of 2 mL. A 50 μL microbe suspension with a concentration of approximately 1×10^4 cell/mL was added to the medium, which was cultured aerobically for 7 days at 32° C. […]

Malassezia infection = settings: Example 14: 1% test solution applied twice a day, lower-left abdomen
M. furfur = assay: Malassezia drug sensitivity test (Sugita et al., mLNA medium); format: cell-based
Experimental: as §3
(§5) The antifungal activity of the compounds of the present invention against Malassezia spp. was evaluated in drug sensitivity tests against human-related genus Malassezia species, performed in compliance with the methodology of Sugita et al. (2005). The test drug and mLNA nutrient medium were added to the wells of a 24-well microtiter plate with a total quantity of 2 mL. A 50 μL microbe suspension with a concentration of approximately 1×10^4 cell/mL was added to the medium, which was cultured aerobically for 7 days at 32° C. In comparison to the control (no test drug), the density required to completely prevent growth was set as the minimum inhibitory concentration (MIC).

hyperkeratotic tinea = assay: Topical treatment of hyperkeratotic tinea, case reports; format: in vivo, humans
Excerpt: as §1, §2

M. dermatitis = assay: organism not typed; settings: 168 h
Experimental: as §3, §5

M. slooffiae = assay: organism not typed; settings: 168 h
Experimental: as §3, §5

M. sympodialis = assay: organism not typed; settings: 168 h
Experimental: as §3, §5

M. restricta = assay: organism not typed; settings: 168 h
Experimental: as §3, §5

M. yamatoensis = assay: organism not typed; settings: 168 h
Experimental: as §3, §5

M. japonica = assay: organism not typed; settings: 168 h
Experimental: as §3, §5

M. obtusa = assay: organism not typed; settings: 168 h
Experimental: as §3, §5

T. rubrum IFM 59814 = assay: CLSI broth microdilution drug-sensitivity test; format: cell-based, Trichophyton rubrum
Experimental: as §3, §4

E. floccosum IFM 53345 = assay: CLSI broth microdilution drug-sensitivity test; format: cell-based, Epidermophyton floccosum
Experimental: as §3, §4

[3] = Trichophyton mentagrophytes, IFM59813
[4] = Cryptococcus neoformans, IFM5807
[5] = Epidermophyton floccosum, IFM53345
[6] = T. mentagrophytes IFM 59813, broth microdilution

Excerpt for small red papules: Dermatophyte was isolated from the papules in this case, and was confirmed through gene analysis to be Trichophyton mentagrophytes.

CCC(C)n1ncn(-c2ccc(N3CCN(c4ccc(OCC5COC(Cn6cncn6)(c6ccc(Cl)cc6Cl)O5)cc4)CC3)cc2)c1=O (stereo not shown) [Itrizole, reference compound]
outcome of oral therapy of tinea unguium (tinea unguium; Example 16: oral therapy, left-foot big-toe toenail): ineffective

O=C([O-])c1ccccc1.O=C([O-])c1ccccc1.[Ca+2] [calcium benzoate]
curative effect against tinea of the skin (tinea glabrosa; 1% aqueous solution (Example 15)): showed a curative effect | time until skin symptoms disappeared (tinea eliminated) (tinea glabrosa; Example 15: 1% test solution in water atomized twice a day, abdominal region): about two

O=C([O-])CN(CCN(CC(=O)O)CC(=O)O)CC(=O)[O-].[Na+].[Na+] [ethylenediaminetetraacetic acid disodium salt]
healing of tinea corporis (tinea corporis): heal tinea corporis | permissible daily intake [1]: ≤ 2.5 mg per 1 kg of body weight | MIC [2, 3]: 78 µg/mL

O=C([O-])CN(CCN(CC(=O)[O-])CC(=O)[O-])CC(=O)[O-].[Mg+2].[Na+].[Na+] [ethylenediaminetetraacetic acid magnesium disodium salt]
MIC [2, 3]: 78 µg/mL

O=C([O-])CN(CCN(CC(=O)[O-])CC(=O)O)CC(=O)[O-].[K+].[K+].[K+] [ethylenediaminetetraacetic acid tripotassium salt]
MIC [2, 3]: 78 µg/mL

O=C([O-])CN(CCN(CC(=O)[O-])CC(=O)O)CC(=O)[O-].[Na+].[Na+].[Na+] [ethylenediaminetetraacetic acid trisodium salt]
MIC (C. albicans IFM 5740; Candida albicans, IFM5740): 0.2 µg/mL | MIC (M. gypseum IFM 59816; Nannizzia gypsea, IFM59816): 78 µg/mL | MIC (C. neoformans IFM5807; [4]): 9.8 µg/mL | MIC (A. fumigatus IFM4942; Aspergillus fumigatus, IFM4942): 9.8 µg/mL | time until red flaring disappeared and healthy skin returned (tinea corporis; Example 8: 1% test solution sprayed once a day, chest, Trichophyton mentagrophytes): approximately 2 weeks | time until skin symptoms disappeared or cicatrized (tinea corporis healed) (tinea corporis; Example 9: 1% test solution sprayed once a day, left thigh, considered M. canis): approximately one | healing of tinea corporis (tinea corporis): heal tinea corporis | time until papules disappeared, completely healed (small red papules; Example 18: 2% test solution sprayed twice a day, scalp at back of head): 2 weeks | time until papules disappeared, completely healed (small red papules; Example 19: 2% test solution sprayed twice a day, back of right thigh, Trichophyton mentagrophytes): 10 days | MIC (M. globosa): 63 µg/mL | MIC [2, 3]: 78 µg/mL | time until healthy skin and nail recovered (tinea unguium; Example 12: 2% test solution, little finger soaked in fingerstall at bedtime, T. mentagrophytes and Candida): 2 months | outcome of tinea unguium treatment (tinea unguium; Example 16: 2% test solution sprayed twice a day, big-toe toenail refractory to oral Itrizole): curing the tinea | time until tinea unguium cured (tinea unguium; Example 20: 3% test solution sprayed twice a day, little-toe toenail, Trichophyton rubrum): approximately 8 months | time until healthy nail recovered (tinea unguium; Example 22: 10% test solution in water applied once a day, right thumb nail, Trichophyton rubrum): about one | time until healthy nail restored (tinea unguium; Example 23: 20% test solution (glycerin, water) applied twice a day, right thumbnail, Trichophyton rubrum): about 1 year | time until light-brown area disappeared (Malassezia infection): approximately 3 weeks | time until red papules cured completely (tinea glabrosa; Example 23: 2% solution once or twice a day, thigh, abdomen, breast or back, Aspergillus tubingensis, Basidiomycete and other fungi): 1-2 weeks | time until complete cure of red papule (tinea glabrosa; Example 23: 2% solution twice a day, back of head, Aspergillus japonicus): two | MIC (M. furfur; Malassezia furfur, 168 h): 63 µg/mL | time until hyperkeratotic-type tinea eliminated and clean skin recovered (hyperkeratotic tinea; Example 5: 2% test solution (glycerin, 15% ethanol), sprayed twice daily, sole of foot, T. mentagrophytes and Candida isolated): approximately 2 months | time until tinea eliminated and healthy skin returned (hyperkeratotic tinea; Example 6: 1% test solution, foot immersed 1 hour a day): about one and a half | time until infected area entirely replaced by healthy skin (hyperkeratotic tinea; Example 17: 2% test solution sprayed twice a day, base of toes to arch, Trichophyton rubrum): approximately 6 months | time until complete recovery of healthy skin (hyperkeratotic tinea; Example 21: 5% test solution sprayed twice a day, left and right heels, Trichophyton rubrum): 3 months | MIC (M. dermatitis): 31 µg/mL | MIC (M. slooffiae): 63 µg/mL | MIC (M. sympodialis): 63 µg/mL | MIC (M. restricta): 31 µg/mL | MIC (M. yamatoensis): 63 µg/mL | MIC (M. japonica): 63 µg/mL | MIC (M. obtusa): 31 µg/mL | MIC (T. rubrum IFM 59814; Trichophyton rubrum, IFM59814): 39 µg/mL | MIC (E. floccosum IFM 53345; [5]): 78 µg/mL

O=C([O-])c1ccccc1.O=C([O-])c1ccccc1.[Mg+2] [magnesium benzoate]
MIC [2, 6]: 780 µg/mL

O=C([O-])c1ccccc1.[K+] [potassium benzoate]
MIC [2, 6]: 780 µg/mL

C/C=C/C=C/C(=O)[O-].[K+] [potassium sorbate]
MIC (C. albicans IFM 5740; Candida albicans, IFM5740): 3100 µg/mL | MIC (M. gypseum IFM 59816; Nannizzia gypsea, IFM59816): 780 µg/mL | MIC (C. neoformans IFM5807; [4]): 200 µg/mL | MIC (A. fumigatus IFM4942; Aspergillus fumigatus, IFM4942): 780 µg/mL | healing of tinea corporis (tinea corporis): heal tinea corporis | MIC [2, 3]: 390 µg/mL | time until healthy nail regained (tinea unguium; Example 13: 1% test solution (1% glycerin, 15% ethanol), big-toe toenail immersed 1 hour a day): about 9 months | MIC (M. furfur; Malassezia furfur, 168 h): 310 µg/mL | MIC (T. rubrum IFM 59814; Trichophyton rubrum, IFM59814): 780 µg/mL | MIC (E. floccosum IFM 53345; [5]): 200 µg/mL

O=C([O-])c1ccccc1.[Na+] [sodium benzoate]
MIC (C. albicans IFM 5740; C. albicans IFM 5740, broth microdilution): 6300 µg/mL | MIC (M. gypseum IFM 59816; M. gypseum IFM 59816, broth microdilution): 1600 µg/mL | MIC (C. neoformans IFM5807; C. neoformans IFM5807, broth microdilution): 1600 µg/mL | MIC (A. fumigatus IFM4942; A. fumigatus IFM4942, broth microdilution): 3100 µg/mL | healing of tinea corporis (tinea corporis): heal tinea corporis | MIC [2, 6]: 200 µg/mL | time until healthy nail restored (tinea unguium; Example 13: 1% test solution in 20% ethanol, thumb nail soaked in fingerstall one day, 10 times): about 3 months | MIC (M. furfur; M. furfur, 7 days at 32° C., complete prevention of growth): 310 µg/mL | MIC (T. rubrum IFM 59814; T. rubrum IFM 59814, broth microdilution): 390 µg/mL | MIC (E. floccosum IFM 53345; E. floccosum IFM 53345, broth microdilution): 200 µg/mL

C/C=C/C=C/C(=O)[O-].[Na+] [sodium sorbate]
MIC ([2]; Trichophyton mentagrophytes, IFM59813, T. mentagrophytes IFM 59813, broth microdilution, read-out: MIC): 780 µg/mL
